Experimental data: article PMC10141580, “Cyclic Dichalcogenides Extend the Reach of Bioreductive Prodrugs to Harness Thiol/Disulfide Oxidoreductases: Applications to seco-Duocarmycins Targeting the Thioredoxin System” (ACS Central Science, 2023)
Where two headings read alike, the source gives them in different places.

System: NCI-60 standardized human tumor cell line panel
Assay: cells
Type: cell-based
Conditions: for NCI-60 screening: Log(GI50): log10 of GI50 in M; for NCI-60 screening: Log(RedIndex): log10 reductive index vs P-CC60

## COc1cc2cc(C(=O)N3CC(CCl)c4c3cc(OC(=O)N3CCN(C)C5CSSCC53)c3ccccc43)[nH]c2c(OC)c1OC (mixture of isomers) [Me-SS66T-CBI-TMI]
786-0 (RE) cell line
  NCI-60 screening: Log(GI50): -7.79
  NCI-60 screening: Log(RedIndex): 2.03
786-0 (RE) cell line, read-out: NCI-60 screening: Raw GI50
  GI50: 16 nM
786-0, read-out: GI50
  GI50: 16 nM
A498 (RE) cell line
  NCI-60 screening: Log(GI50): -6.9
  NCI-60 screening: Log(RedIndex): 1.34
A498 (RE) cell line, read-out: NCI-60 screening: Raw GI50
  GI50: 130 nM
A498, read-out: GI50
  GI50: 130 nM
A549/ATCC, read-out: GI50
  GI50: 12 nM
ACHN (RE) cell line
  NCI-60 screening: Log(GI50): -8.02
  NCI-60 screening: Log(RedIndex): 1.71
ACHN (RE) cell line, read-out: NCI-60 screening: Raw GI50
  GI50: 9.5 nM
ACHN, read-out: GI50
  GI50: 9.5 nM
BT-549, read-out: GI50
  GI50: 15 nM
CAKI-1 (RE) cell line
  NCI-60 screening: Log(GI50): -7.56
  NCI-60 screening: Log(RedIndex): 1.74
CAKI-1 (RE) cell line, read-out: NCI-60 screening: Raw GI50
  GI50: 27 nM
CAKI-1, read-out: GI50
  GI50: 27 nM
CCRF-CEM, read-out: GI50
  GI50: 26 nM
COLO 205, read-out: GI50
  GI50: 49 nM
DU-145 (PR) cell line
  NCI-60 screening: Log(GI50): -8.46
  NCI-60 screening: Log(RedIndex): 2.12
DU-145, read-out: GI50
  GI50: 3.5 nM
EKVX, read-out: GI50
  GI50: 18 nM
HCC-2998, read-out: GI50
  GI50: 15 nM
HCT-15, read-out: GI50
  GI50: 22 nM
HCT-116, read-out: GI50
  GI50: 18 nM
HL-60(TB), read-out: GI50
  GI50: 12 nM
HOP-62, read-out: GI50
  GI50: 12 nM
HOP-92, read-out: GI50
  GI50: 27 nM
HT29, read-out: GI50
  GI50: 34 nM
IGROV1 (OV) cell line
  NCI-60 screening: Log(GI50): -7.23
  NCI-60 screening: Log(RedIndex): 1.6
IGROV1 (OV) cell line, read-out: NCI-60 screening: Raw GI50
  GI50: 58 nM
IGROV1, read-out: GI50
  GI50: 58 nM
K-562, read-out: GI50
  GI50: 25 nM
KM12, read-out: GI50
  GI50: 44 nM
LOX IMVI, read-out: GI50
  GI50: 12 nM
M14, read-out: GI50
  GI50: 10 nM
MALME-3M, read-out: GI50
  GI50: 14 nM
MCF7, read-out: GI50
  GI50: 5.2 nM
MDA-MB-435, read-out: GI50
  GI50: 27 nM
MDA-MB-468, read-out: GI50
  GI50: 12 nM
MOLT-4, read-out: GI50
  GI50: 9.9 nM
NCI-H23, read-out: GI50
  GI50: 9.5 nM
NCI-H226, read-out: GI50
  GI50: 95 nM
NCI-H460 (LC) cell line
  NCI-60 screening: Log(GI50): -8.32
  NCI-60 screening: Log(RedIndex): 2.03
NCI-H460, read-out: GI50
  GI50: 4.8 nM
NCI-H522 (LC) cell line
  NCI-60 screening: Log(GI50): -7.91
  NCI-60 screening: Log(RedIndex): 2.14
NCI-H522 (LC) cell line, read-out: NCI-60 screening: Raw GI50
  GI50: 12 nM
NCI-H522, read-out: GI50
  GI50: 12 nM
OVCAR-3 (OV) cell line
  NCI-60 screening: Log(GI50): -7.28
  NCI-60 screening: Log(RedIndex): 1.6
OVCAR-3, read-out: GI50
  GI50: 53 nM
OVCAR-4 (OV) cell line
  NCI-60 screening: Log(GI50): -6.8
  NCI-60 screening: Log(RedIndex): 1.17
OVCAR-4 (OV) cell line, read-out: NCI-60 screening: Raw GI50
  GI50: 160 nM
OVCAR-4, read-out: GI50
  GI50: 160 nM
OVCAR-5 (OV) cell line
  NCI-60 screening: Log(GI50): -7.44
  NCI-60 screening: Log(RedIndex): 2.15
OVCAR-5, read-out: GI50
  GI50: 36 nM
OVCAR-8 (OV) cell line
  NCI-60 screening: Log(GI50): -8.06
  NCI-60 screening: Log(RedIndex): 2.28
OVCAR-8, read-out: GI50
  GI50: 8.6 nM
PC-3 (PR) cell line
  NCI-60 screening: Log(GI50): -7.61
  NCI-60 screening: Log(RedIndex): 2.11
PC-3 (PR) cell line, read-out: NCI-60 screening: Raw GI50
  GI50: 25 nM
PC-3, read-out: GI50
  GI50: 25 nM
RPMI-8226, read-out: GI50
  GI50: 34 nM
RXF 393 (RE) cell line
  NCI-60 screening: Log(GI50): -8.02
  NCI-60 screening: Log(RedIndex): 2.05
RXF 393 (RE) cell line, read-out: NCI-60 screening: Raw GI50
  GI50: 9.5 nM
RXF 393, read-out: GI50
  GI50: 9.5 nM
SF-268, read-out: GI50
  GI50: 15 nM
SF-295, read-out: GI50
  GI50: 9.7 nM
SF-539, read-out: GI50
  GI50: 10 nM
SK-MEL-5, read-out: GI50
  GI50: 13 nM
SK-MEL-28, read-out: GI50
  GI50: 15 nM
SK-OV-3 (OV) cell line
  NCI-60 screening: Log(GI50): -7.91
  NCI-60 screening: Log(RedIndex): 2.24
SK-OV-3 (OV) cell line, read-out: NCI-60 screening: Raw GI50
  GI50: 12 nM
SK-OV-3, read-out: GI50
  GI50: 12 nM
SN12C (RE) cell line
  NCI-60 screening: Log(GI50): -7.77
  NCI-60 screening: Log(RedIndex): 1.85
SN12C, read-out: GI50
  GI50: 17 nM
SNB-19, read-out: GI50
  GI50: 16 nM
SR, read-out: GI50
  GI50: 4 nM
SW-620, read-out: GI50
  GI50: 58 nM
T-47D, read-out: GI50
  GI50: 50 nM
TK-10 (RE) cell line
  NCI-60 screening: Log(GI50): -6.9
  NCI-60 screening: Log(RedIndex): 1.35
TK-10 (RE) cell line, read-out: NCI-60 screening: Raw GI50
  GI50: 130 nM
